The record followed here is patent US20240132431A1, “METHOD FOR ALKYLATING ACIDIC FUNCTIONAL GROUP” (Chugai Seiyaku Kabushiki Kaisha, priority 2021, published 2024).

This assay concerns the target T1, Bcl-2 protein (Recombinant Human Bcl-2 Protein) (Homo sapiens, UniProt P10415).
T1 construct: purchased Novus NBP2-34889
Briefly: Binding evaluation of mixture library compounds to Bcl-2 using AS-MS (affinity selection mass spectrometry). As to conditions: for ASMS ratio (%) n = 1: replicate n = 1; for ASMS ratio (%) n = 1 / ASMS ratio (%) n = 2: ASMS Ratio(%)=(A−C)/B×100; for ASMS ratio (%) n = 2: replicate n = 2. As for the experimental part: For one well of MICROPLATE, 96-well, PP, V-BOTTOM (Greiner bio-one, 651201), DMSO solutions of 12 mixtures (prepared to approximately 0.58 mM based on calculations from the average molecular weight of each mixture), in each of which 100 compounds are mixed, were each dispensed, and dispensed into a total of 12 wells, where the 12 mixtures are mixAI-B4J-01, mixAI-B1M-01, mixAI-B1K-01, mixAI-B10-01, mixAI-B1A-01, mixAI-B3A-01, mixAI-B21-01, mixAI-B2L-01, mixAI-B2N-01, mixAI-B2A-01, mixAI-B2Q-01, and mixAI-B2R-01 listed in [Table AI-03-B4J-01], [Table AI-03-B1M-01], [Table AI-03-B1K-01], [Table AI-03-B10-01], [Table AI-03-B1A-01], [Table AI-03-B3A-01], [Table AI-03-B2I-01], [Table AI-03-B2L-01], [Table AI-03-B2N-01], [Table AI-03-B2A-01], [Table AI-03-B2Q-01], and [AI-03-B2R-01] shown in Example 6. Using the LABCYTE ECHO® 555 Acoustic Dispensing System (BECKMAN COULTER), 70 nL was collected from each of the 12 wells into one arbitrary well to prepare a sample solution with 1200 compounds in the mixed state (the presence of 1152 compounds had already been identified when prepared in Example 6-5-3). (In the present specification, the mixture collected in this one well is referred to as one library.) Furthermore, a Bcl-2 protein (Novus, NBP2-34889, Recombinant Human Bcl-2 Protein, Lot E60145051) (19.2 μL) that had been prepared in advance to be 20.9 μM using a Tris-HCl buffer (25 mM Tris-HCl pH 7.4, 150 mM NaCl, 0.025% Tween-20, 1 mM DTT) was added to the well in which 1200 compounds (the presence of 1152 compounds had already been identified when prepared in Example 6-5-3) were dispensed (final compound concentration […], final Bcl-2 concentration 20 μM), and the mixture was incubated in the dark at 23° C. for 1 hour. Next, using the 96-well MacroSpin column, P-2 Material (Harvard, 74-5655) that had been swollen, conditioning of the 96-well MacroSpin column was performed three times by centrifugation with 200 μL of an assay buffer (25 mM Tris-HCl pH 7.4, 150 mM NaCl, 0.025% Tween-20, 1 mM DTT), 2000 XG, 4° C., 2 min. Subsequently, 20 μL of the sample after incubation was added to the 96-well MacroSpin column, P-2 Material, that had been conditioned, and SEC treatment was performed by centrifugation at 2000×G for 2 minutes. To the liquid passed from the SEC, 32 μL of a 1:1 mixed solution of acetonitrile and methanol (LC/MS grade, Fujifilm Wako Pure Chemical Corporation) was added, the mixture was centrifuged at 1800×G, 4° C., 5 min, and the supernatant was used as analysis sample ASMS (A), while a sample that had been prepared by the same operations at 1200 compounds/well and to which only the Tris-HCl buffer had been added without the Bcl-2 protein was incubated under the same conditions, no 96-well MacroSpin column treatment was performed, the same organic solvent was added, and the supernatant solution obtained by centrifugation was used as STD (B). Next, a sample that had been prepared by the same operations at 1200 compounds/well and to which only the Tris-HCl buffer had been added without the Bcl-2 protein was incubated under the same conditions, the same 96-well MacroSpin column treatment was performed, the same organic solvent was added, and the supernatant solution obtained by centrifugation was used as BK (C), and measured by reversed phase LC/MS.
Then, analysis of the 1200 compounds was carried out for samples A, B, and C with TraceFinder 5.1 (Thermo Fisher Scientific) and CHANCE Software (in-house), and the ASMS Ratio (%) was calculated according to the following calculation formula.
Calculation formula: ASMS Ratio(%)=(A−C)/B×100

[1] abbreviates: AS-MS on the mixture of 1200 library compounds.
The mark [2] stands for this setting: AS-MS, mixture of 1200 compounds, Bcl-2.

T1 sequence (P10415 whole entry): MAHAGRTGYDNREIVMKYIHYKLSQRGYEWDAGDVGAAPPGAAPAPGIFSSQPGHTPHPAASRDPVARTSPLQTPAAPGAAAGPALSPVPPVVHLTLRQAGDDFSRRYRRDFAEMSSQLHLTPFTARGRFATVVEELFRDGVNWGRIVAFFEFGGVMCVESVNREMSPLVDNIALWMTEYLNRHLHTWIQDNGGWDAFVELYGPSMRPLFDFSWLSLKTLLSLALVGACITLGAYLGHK

For the compound `CCOc1cncc(-c2ccc(CN3CCN(c4ccc(C(=O)NS(=O)(=O)CC56CC7CC(CC(C7)C5)C6)cc4)CC3)cc2F)c1` [B2A052-01, N-(1-Adamantylmethylsulfonyl)-4-[4-[[4-(5-ethoxypyridin-3-yl)-3-fluorophenyl]methyl]piperazin-1-yl]benzamide], where the note is “AS-MS, mixture library, Bcl-2”, the “ASMS ratio (%) n = 1” value is reported as 0.0% and the “ASMS ratio (%) n = 2” value came out at 0.0%.

Take `CCOc1cccc(C#Cc2cncc(C(=O)N3CCN(c4ccc(C(=O)Nc5ccc(OC)cc5)nn4)CC3)c2)c1` [B1O009-01, 6-[4-[5-[2-(3-Ethoxyphenyl)ethynyl]pyridine-3-carbonyl]piperazin-1-yl]-N-(4-methoxyphenyl)pyridazine-3-carboxamide]: under setting [1], the “ASMS ratio (%) n = 1” value is 1.1% and the “ASMS ratio (%) n = 2” value is 1.3%.

In the case of `CCOc1cncc(-c2ccc(C(=O)N3CCN(c4ccc(C(=O)NS(=O)(=O)CCC(F)(F)F)cc4)CC3)c3ccccc23)c1` [B2N036-01, 4-[4-[4-(5-Ethoxypyridin-3-yl)naphthalene-1-carbonyl]piperazin-1-yl]-N-(3,3,3-trifluoropropylsulfonyl)benzamide], the “ASMS ratio (%)” value is 0.0% (n = 1) and 0.4% (n = 2).

For `CCOc1cncc(C#Cc2cc(C(=O)N3CCN(c4ccc(C(=O)NCC(F)(F)F)nn4)CC3)cc(C(F)(F)F)c2)c1` [B1K020-01, 6-[4-[3-[2-(5-Ethoxypyridin-3-yl)ethynyl]-5-(trifluoromethyl)benzoyl]piperazin-1-yl]-N-(2,2,2-trifluoroethyl)pyridazine-3-carboxamide], under setting [2], the “ASMS ratio (%) n = 1” value was determined as 2.9% and the “ASMS ratio (%) n = 2” value is listed as −3.8%.

`CCOc1cccc(-c2ccccc2CN2CCN(c3ccc(C(=O)N(C)CC45CC6CC(CC(C6)C4)C5)nn3)CC2)c1` [B3A071-01, N-(1-Adamantylmethyl)-6-[4-[[2-(3-ethoxyphenyl)phenyl]methyl]piperazin-1-yl]-N-methylpyridazine-3-carboxamide]: under setting [1], the “ASMS ratio (%) n = 1” value turned out to be 3.2% and the “ASMS ratio (%) n = 2” value was −4.7%.

For `CCOc1cccc(-c2ccc(CN3CCN(c4ccc(C(=O)N(CC)CC)nn4)CC3)cc2F)c1` [B4J077-01, 6-[4-[[4-(3-Ethoxyphenyl)-3-fluorophenyl]methyl]piperazin-1-yl]-N,N-diethylpyridazine-3-carboxamide], for the setting “AS-MS, mixture library, Bcl-2”, the “ASMS ratio (%) n = 1” value turned out to be 1.2% and the “ASMS ratio (%) n = 2” value was −5.5%.

With `CCOc1cncc(-c2cc(CN3CCN(c4ccc(C(=O)NS(=O)(=O)CC56CC7CC(CC(C7)C5)C6)cc4)CC3)cc(OC(F)(F)F)c2)c1` [B2A064-01, N-(1-Adamantylmethylsulfonyl)-4-[4-[[3-(5-ethoxypyridin-3-yl)-5-(trifluoromethoxy)phenyl]methyl]piperazin-1-yl]benzamide], for the setting “AS-MS, mixture library, Bcl-2”, the “ASMS ratio (%) n = 1” value came out at 0.0% and the “ASMS ratio (%) n = 2” value is listed as −0.3%.

On to “4-[4-[[3-Ethoxy-5-(3-ethoxyphenyl)phenyl]methyl]piperazin-1-yl]-N-propylbenzamide [B1M009-01]”, for which the “ASMS ratio (%) n = 2” value under setting [2] is 0.0%.

Regarding `CCOc1cncc(-c2cc(CN3CCN(c4ccc(C(=O)NCC(F)(F)F)cc4)CC3)cc(OC(F)(F)F)c2)c1` [B1K064-01, 4-[4-[[3-(5-Ethoxypyridin-3-yl)-5-(trifluoromethoxy)phenyl]methyl]piperazin-1-yl]-N-(2,2,2-trifluoroethyl)benzamide], under setting [2], the “ASMS ratio (%) n = 1” value came to 1.4% and the “ASMS ratio (%) n = 2” value is given as 0.7%.

On to `CCOc1cccc(-c2cc(CN3CCN(c4ccc(C(=O)N(CC)CC)cc4)CC3)cc(C(F)(F)F)c2)c1` [B4J061-01, 4-[4-[[3-(3-Ethoxyphenyl)-5-(trifluoromethyl)phenyl]methyl]piperazin-1-yl]-N,N-diethylbenzamide], for which, under “AS-MS, mixture library, Bcl-2”, the “ASMS ratio (%) n = 1” value is on record as 1.6% and the “ASMS ratio (%) n = 2” value is given as −1.8%.
